Test results as given in paper PMC9851200, “Multiparameter phenotypic screening for endogenous TFEB and TFE3 translocation identifies novel chemical series modulating lysosome function” (Autophagy, 2022).
Where two headings read alike, the source gives them in different places.

How the values were obtained:
Type in all cases: binding
[1] = molecular target: T1, kinases (KINOMEscan panel) (Homo sapiens, UniProt Q7L7X3); details: kinase TAOK1; NEW KINOMEscan
T1 sequence (Q7L7X3 1-1001): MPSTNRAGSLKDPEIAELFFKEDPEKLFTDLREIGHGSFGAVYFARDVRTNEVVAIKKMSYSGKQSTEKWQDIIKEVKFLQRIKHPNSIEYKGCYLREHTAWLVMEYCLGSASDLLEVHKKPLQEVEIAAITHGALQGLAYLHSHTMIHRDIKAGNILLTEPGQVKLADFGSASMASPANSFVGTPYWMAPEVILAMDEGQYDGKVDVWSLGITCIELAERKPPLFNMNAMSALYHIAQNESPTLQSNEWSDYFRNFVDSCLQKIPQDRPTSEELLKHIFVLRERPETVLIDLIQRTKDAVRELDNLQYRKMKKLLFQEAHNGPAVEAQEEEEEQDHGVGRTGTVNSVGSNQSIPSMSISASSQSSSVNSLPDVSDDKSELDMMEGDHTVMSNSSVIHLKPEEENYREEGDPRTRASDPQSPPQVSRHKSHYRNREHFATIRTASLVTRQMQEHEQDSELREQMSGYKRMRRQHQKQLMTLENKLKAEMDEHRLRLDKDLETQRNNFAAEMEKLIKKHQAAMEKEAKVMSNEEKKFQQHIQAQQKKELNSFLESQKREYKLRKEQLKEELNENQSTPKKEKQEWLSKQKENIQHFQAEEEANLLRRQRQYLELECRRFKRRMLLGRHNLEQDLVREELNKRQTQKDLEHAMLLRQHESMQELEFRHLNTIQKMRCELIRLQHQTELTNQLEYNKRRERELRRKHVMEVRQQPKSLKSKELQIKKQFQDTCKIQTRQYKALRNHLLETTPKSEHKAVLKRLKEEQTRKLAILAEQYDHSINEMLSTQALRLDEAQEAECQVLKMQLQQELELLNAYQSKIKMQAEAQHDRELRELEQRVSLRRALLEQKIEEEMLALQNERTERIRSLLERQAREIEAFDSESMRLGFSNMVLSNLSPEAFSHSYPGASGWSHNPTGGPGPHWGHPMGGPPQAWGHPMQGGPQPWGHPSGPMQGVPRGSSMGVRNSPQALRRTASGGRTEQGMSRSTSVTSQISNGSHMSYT

[2] = molecular target: kinases (KINOMEscan panel) (Homo sapiens, UniProt P49761); details: CLK3; NEW KINOMEscan
Chain of kinases (KINOMEscan panel) (Homo sapiens, UniProt P49761) (P49761 whole entry): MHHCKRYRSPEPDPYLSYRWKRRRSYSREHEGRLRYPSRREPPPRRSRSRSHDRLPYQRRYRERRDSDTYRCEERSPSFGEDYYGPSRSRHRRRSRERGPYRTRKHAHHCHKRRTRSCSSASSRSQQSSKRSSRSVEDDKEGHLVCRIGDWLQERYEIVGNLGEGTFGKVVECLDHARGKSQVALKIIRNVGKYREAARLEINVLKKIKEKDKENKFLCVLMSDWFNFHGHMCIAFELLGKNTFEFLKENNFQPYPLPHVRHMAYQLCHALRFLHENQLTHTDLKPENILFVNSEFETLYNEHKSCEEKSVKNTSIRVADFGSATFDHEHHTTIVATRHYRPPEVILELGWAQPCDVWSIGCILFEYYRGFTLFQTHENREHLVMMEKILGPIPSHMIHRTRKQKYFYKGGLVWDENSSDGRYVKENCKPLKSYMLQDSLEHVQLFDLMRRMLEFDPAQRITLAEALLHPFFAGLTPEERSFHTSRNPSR

[3] = molecular target: kinases (KINOMEscan panel) (Homo sapiens, UniProt Q9H422); details: kinase HIPK3; NEW KINOMEscan
[4] = molecular target: kinases (KINOMEscan panel) (Homo sapiens, UniProt O75116); details: kinase ROCK2; NEW KINOMEscan
Chain of kinases (KINOMEscan panel) (Homo sapiens, UniProt O75116) (O75116 whole entry): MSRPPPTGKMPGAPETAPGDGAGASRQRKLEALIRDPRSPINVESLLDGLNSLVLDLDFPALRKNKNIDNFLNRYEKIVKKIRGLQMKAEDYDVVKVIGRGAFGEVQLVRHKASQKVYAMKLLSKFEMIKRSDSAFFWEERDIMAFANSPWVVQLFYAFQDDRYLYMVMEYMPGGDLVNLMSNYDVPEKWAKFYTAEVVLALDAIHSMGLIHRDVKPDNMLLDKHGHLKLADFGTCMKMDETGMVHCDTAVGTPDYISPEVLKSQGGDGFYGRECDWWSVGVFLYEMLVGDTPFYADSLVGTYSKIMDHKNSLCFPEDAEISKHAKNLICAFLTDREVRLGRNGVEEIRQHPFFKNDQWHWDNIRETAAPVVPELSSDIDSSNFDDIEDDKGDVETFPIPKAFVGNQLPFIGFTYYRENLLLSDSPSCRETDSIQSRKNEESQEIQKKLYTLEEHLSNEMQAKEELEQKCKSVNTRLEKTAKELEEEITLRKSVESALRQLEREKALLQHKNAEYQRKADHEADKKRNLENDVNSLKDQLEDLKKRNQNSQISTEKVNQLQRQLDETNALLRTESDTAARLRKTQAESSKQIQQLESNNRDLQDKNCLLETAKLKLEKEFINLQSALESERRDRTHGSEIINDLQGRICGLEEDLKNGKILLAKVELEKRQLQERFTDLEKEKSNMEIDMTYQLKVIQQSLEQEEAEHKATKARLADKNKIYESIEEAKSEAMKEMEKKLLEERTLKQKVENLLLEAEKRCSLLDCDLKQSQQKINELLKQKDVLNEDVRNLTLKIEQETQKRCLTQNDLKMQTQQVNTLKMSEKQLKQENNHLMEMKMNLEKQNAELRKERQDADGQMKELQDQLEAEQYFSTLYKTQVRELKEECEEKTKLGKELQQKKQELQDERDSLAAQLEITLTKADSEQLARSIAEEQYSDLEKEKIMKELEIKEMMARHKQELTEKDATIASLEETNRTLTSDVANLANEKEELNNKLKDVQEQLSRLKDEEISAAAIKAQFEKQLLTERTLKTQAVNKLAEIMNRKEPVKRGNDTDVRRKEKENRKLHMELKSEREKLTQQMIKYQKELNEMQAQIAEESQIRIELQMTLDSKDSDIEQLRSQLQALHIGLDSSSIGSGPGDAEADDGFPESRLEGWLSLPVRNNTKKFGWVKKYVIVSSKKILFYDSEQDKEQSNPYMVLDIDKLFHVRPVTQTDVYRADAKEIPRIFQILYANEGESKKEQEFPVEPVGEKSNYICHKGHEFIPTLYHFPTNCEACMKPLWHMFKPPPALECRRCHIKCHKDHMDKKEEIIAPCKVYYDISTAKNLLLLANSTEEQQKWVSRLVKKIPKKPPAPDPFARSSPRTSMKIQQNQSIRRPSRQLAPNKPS

[5] = molecular target: kinases (KINOMEscan panel) (Homo sapiens, UniProt P10721, V559D/V654A); details: kinase KIT(V559D,V654A); NEW KINOMEscan
Chain of kinases (KINOMEscan panel) (Homo sapiens, UniProt P10721, V559D/V654A) (P10721 26-976 V559D/V654A): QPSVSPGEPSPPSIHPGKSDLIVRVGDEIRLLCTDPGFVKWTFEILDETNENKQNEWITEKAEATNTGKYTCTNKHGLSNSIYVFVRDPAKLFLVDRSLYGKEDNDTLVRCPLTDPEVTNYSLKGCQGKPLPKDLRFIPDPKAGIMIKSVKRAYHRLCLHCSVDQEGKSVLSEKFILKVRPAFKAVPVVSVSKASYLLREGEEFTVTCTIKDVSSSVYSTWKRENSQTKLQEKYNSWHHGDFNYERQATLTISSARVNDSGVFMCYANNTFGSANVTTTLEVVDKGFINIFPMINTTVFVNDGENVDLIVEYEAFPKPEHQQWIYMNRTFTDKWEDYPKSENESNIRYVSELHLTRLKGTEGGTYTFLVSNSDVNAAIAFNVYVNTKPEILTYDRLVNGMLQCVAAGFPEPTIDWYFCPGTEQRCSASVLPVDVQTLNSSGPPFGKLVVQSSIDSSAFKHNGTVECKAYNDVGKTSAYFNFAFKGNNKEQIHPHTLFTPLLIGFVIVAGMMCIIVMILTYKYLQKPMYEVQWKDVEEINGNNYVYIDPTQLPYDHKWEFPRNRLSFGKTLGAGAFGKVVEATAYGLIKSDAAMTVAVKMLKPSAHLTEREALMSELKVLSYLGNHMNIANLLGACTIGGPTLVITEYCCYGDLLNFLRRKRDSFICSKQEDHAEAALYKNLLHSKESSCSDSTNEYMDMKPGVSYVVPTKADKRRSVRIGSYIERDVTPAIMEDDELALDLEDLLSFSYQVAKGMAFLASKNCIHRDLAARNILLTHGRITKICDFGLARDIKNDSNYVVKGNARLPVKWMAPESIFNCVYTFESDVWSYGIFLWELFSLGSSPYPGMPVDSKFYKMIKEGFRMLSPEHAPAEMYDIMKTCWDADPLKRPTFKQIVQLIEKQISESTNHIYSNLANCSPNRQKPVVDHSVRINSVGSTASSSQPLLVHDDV

[6] = molecular target: kinases (KINOMEscan panel) (Homo sapiens, UniProt O43353); details: RIPK2; NEW KINOMEscan
Chain of kinases (KINOMEscan panel) (Homo sapiens, UniProt O43353) (O43353 whole entry): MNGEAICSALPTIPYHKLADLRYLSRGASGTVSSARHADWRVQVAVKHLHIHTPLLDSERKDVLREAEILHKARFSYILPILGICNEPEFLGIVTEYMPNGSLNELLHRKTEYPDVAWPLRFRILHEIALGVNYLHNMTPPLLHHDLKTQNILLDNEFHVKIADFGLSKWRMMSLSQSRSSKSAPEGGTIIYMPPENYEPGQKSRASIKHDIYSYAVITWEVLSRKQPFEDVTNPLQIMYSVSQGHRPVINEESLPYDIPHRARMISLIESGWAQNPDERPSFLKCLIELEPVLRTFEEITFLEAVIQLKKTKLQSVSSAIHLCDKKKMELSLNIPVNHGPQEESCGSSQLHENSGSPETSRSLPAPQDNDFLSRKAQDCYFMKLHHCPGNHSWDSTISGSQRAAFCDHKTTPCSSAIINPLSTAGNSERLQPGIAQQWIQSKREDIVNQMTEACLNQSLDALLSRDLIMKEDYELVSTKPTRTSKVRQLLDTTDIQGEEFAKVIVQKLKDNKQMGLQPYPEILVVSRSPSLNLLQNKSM

[7] = molecular target: T2, kinases (KINOMEscan panel) (Homo sapiens, UniProt Q9Y2U5); details: MAP3K2; NEW KINOMEscan
T2 sequence (Q9Y2U5 1-619): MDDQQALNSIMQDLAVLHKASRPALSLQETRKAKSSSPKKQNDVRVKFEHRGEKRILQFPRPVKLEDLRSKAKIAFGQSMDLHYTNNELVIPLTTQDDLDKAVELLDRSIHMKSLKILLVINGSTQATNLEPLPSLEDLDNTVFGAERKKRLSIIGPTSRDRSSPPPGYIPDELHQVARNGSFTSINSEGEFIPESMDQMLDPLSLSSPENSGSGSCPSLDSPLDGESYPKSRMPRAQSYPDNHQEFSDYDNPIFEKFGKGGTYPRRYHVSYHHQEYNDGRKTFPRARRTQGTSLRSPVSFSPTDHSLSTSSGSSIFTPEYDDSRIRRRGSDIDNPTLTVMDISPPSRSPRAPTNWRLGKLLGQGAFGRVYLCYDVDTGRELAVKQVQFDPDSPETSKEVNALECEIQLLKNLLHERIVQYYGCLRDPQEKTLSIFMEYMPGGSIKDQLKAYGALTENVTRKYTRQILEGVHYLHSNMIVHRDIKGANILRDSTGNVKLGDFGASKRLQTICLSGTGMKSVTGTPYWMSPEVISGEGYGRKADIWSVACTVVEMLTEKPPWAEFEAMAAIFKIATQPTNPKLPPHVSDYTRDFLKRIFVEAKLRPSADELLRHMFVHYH

[8] = molecular target: T3, kinases (KINOMEscan panel) (Homo sapiens, UniProt Q8IW41)
T3 sequence (Q8IW41 1-473): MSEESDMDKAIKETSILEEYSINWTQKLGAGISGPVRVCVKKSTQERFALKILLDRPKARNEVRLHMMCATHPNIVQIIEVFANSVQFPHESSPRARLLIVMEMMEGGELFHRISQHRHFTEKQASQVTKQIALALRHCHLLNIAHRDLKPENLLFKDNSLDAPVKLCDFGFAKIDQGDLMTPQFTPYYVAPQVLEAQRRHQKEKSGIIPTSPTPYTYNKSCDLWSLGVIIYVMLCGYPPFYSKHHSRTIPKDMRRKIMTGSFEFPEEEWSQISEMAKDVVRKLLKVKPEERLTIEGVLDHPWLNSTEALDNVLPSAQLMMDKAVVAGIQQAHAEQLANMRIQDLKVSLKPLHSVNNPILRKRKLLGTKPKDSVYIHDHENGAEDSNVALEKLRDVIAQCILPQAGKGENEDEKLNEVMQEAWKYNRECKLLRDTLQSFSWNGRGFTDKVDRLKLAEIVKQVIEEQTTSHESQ

[9] = molecular target: kinases (KINOMEscan panel) (Homo sapiens, UniProt P07949, V804L); details: NEW KINOMEscan
Chain of kinases (KINOMEscan panel) (Homo sapiens, UniProt P07949, V804L) (P07949 29-1114 V804L): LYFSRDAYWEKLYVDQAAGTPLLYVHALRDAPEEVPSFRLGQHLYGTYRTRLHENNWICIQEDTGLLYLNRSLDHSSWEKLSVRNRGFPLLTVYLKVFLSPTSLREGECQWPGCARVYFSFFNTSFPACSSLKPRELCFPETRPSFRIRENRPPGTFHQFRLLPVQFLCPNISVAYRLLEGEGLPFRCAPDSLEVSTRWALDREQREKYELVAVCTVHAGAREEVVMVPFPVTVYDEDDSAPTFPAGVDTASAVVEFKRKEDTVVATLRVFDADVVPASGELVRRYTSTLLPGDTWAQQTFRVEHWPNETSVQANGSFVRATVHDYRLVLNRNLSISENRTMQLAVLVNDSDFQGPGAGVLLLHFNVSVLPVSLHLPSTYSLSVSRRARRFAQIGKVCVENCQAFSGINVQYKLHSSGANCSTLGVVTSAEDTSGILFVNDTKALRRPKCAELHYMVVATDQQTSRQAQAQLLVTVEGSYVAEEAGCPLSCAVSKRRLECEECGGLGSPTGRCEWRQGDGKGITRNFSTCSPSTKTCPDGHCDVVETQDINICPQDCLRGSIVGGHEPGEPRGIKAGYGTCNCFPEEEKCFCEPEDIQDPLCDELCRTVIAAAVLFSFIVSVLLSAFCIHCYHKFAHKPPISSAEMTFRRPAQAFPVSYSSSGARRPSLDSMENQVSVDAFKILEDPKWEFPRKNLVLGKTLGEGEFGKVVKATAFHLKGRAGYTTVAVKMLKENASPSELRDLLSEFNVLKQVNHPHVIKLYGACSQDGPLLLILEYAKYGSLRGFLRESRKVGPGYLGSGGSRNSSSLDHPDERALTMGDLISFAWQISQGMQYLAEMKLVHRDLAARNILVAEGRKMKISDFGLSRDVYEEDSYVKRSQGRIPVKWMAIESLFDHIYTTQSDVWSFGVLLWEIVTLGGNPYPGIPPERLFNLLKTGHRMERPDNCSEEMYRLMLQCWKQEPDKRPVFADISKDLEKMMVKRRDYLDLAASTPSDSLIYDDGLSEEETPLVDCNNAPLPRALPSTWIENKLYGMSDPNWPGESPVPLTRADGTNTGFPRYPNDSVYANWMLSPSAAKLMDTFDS

[10] = molecular target: kinases (KINOMEscan panel) (Homo sapiens, UniProt Q14012); details: CAMK1; NEW KINOMEscan
Chain of kinases (KINOMEscan panel) (Homo sapiens, UniProt Q14012) (Q14012 whole entry): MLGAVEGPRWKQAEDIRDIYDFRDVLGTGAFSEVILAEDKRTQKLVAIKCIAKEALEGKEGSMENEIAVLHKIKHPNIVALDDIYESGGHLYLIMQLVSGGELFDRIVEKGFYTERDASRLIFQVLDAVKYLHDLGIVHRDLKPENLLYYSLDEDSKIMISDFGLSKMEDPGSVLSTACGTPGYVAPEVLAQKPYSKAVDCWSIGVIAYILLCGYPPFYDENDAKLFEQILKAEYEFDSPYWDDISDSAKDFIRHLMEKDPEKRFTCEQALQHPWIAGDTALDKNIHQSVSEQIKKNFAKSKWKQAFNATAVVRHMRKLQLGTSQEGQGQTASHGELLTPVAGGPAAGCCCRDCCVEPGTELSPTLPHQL

[11] = molecular target: kinases (KINOMEscan panel) (Homo sapiens, UniProt P10721); details: NEW KINOMEscan
Chain of kinases (KINOMEscan panel) (Homo sapiens, UniProt P10721) (P10721 26-976): as the sequence (P10721 26-976 V559D/V654A) above, with D534V, A629V counted along it

| Compound | KINOMEscan TAOK1 [1] | KINOMEscan CLK3 [2] | KINOMEscan HIPK3 [3] | KINOMEscan ROCK2 [4] | KINOMEscan KIT(V559D,V654A) [5] | KINOMEscan RIPK2 [6] | KINOMEscan MAP3K2 [7] | KINOMEscan MAPKAPK5 ([8]; MAPKAPK5, NEW KINOMEscan) | KINOMEscan RET(V804L) [9] | KINOMEscan CAMK1 [10] | KINOMEscan KIT-autoinhibited [11] | KINOMEscan KIT [11] | KINOMEscan MAPKAPK5 [8] |
| --- | --- | --- | --- | --- | --- | --- | --- | --- | --- | --- | --- | --- | --- |
| Cc1cccc(-c2nc(Nc3ccc4nn(C)cc4c3)c3ccccc3n2)n1 [NK167] | 0 | 6 | 0 | 0 | 15 | 3 | 0 | 0 | 0 | 0 | 1 | 8 |  |
| Cc1cccc(-c2nc(N(C)c3ccc4ncsc4c3)c3ccccc3n2)n1 [NK-161] | 1 | 4 | 0 | 0 | 4 | 11 | 0 |  | 15 | 0 | 0 | 5 | 0 |
